Results: patent publication US8729074B2, “Inhibitors of PI3 kinase” (Amgen Inc., priority 2009, dated 2014)

Tested on: phosphorylation of Serine 473 in Akt in HCT 116 cells
Experiment: Cell-based phospho-Akt Ser473 assay (HCT 116 cell)
Details: Homo sapiens; pAkt Ser473, HCT 116 cells, compound 2 hours, IGF-1 stimulation; average if run more than once; read-out: HCT116 Cell IC50
Excerpt: Cell-Based Phospho-Akt Ser473Assay (HCT 116 Cell)
This assay determines the ability of a compound to inhibit the phosphorylation of Serine 473 in Akt using a MSD based sandwich immunoassay (Meso Scale Detection, Meso Scale Discovery (MSD), Gaithersburg, Md.). HCT 116 human colon carcinoma cell lines can be grown in McCoy's 5A growth medium (GIBCO, Carlsbad, Calif.) containing 10% FBS (GIBCO, Carlsbad, Calif.) and X1 Penicillin-streptomycin-glutamine (GIBCO, Carlsbad, Calif.). Prior to the assay, cells can be detached from the culture flask with trypsin, and re-suspended in complete media to give a final concentration of 1.6×10^5 cells per mL. Aliquots (100 μl) of the HCT116 cell suspension can be seeded into each well of a 96 well tissue culture plate to give a final density of 16,000 cells per well. Cells can then be incubated overnight at 37° C.
The following day the cells can be treated with serially diluted test compounds and incubated for 2 hours at 37° C. The culture media on the HCT 116 cells can be replaced with 189 μL McCoys media, supplemented with 0.1% BSA (ICN Biomedicals, Inc., Costa Mesa, Calif.). Compounds can be prepared as either 10 mM or 0.5 mM stock solutions in DMSO, and serially diluted 3 fold in a 10-point dose-response curve to give final concentrations that are 200-fold greater than the desired final test concentration. […]
25 μL Cell lysate can then be transferred to pre-blocked MSD assay plates pre-coated with a capture antibody specific for Akt, and the plates can be incubated for 2 hours at room temperature. […] An aliquot of 150 μL of diluted MSD read buffer can then be applied to each well, and the electrochemiluminescent signal can be measured using a MSD SECTOR™ plate reader (Meso Scale Discovery, Gaithersburg, Md.). This instrument measures the intensity of emitted light to determine a quantitative measure of phosphorylated Akt in each well. The dose-response data obtained with each compound can be analyzed and the IC50 inhibition of Akt phosphorylation at Ser473 can be calculated. […]

SMILES	IC50 [nM]
O=S(=O)(Nc1cc(-c2cnc3ccccn23)cnc1Cl)c1ccc(F)cc1 [Example 3, N-(2-Chloro-5-imidazo[1,2-a]pyridin-3-yl-3-pyridinyl)-4-fluorobenzenesulfonamide]	352
Cc1ccn2c(-c3cnc(Cl)c(NS(=O)(=O)c4ccc(F)cc4)c3)cnc2c1 [Example 4, N-(2-Chloro-5-(7-methylimidazo[1,2-a]pyridin-3-yl)-3-pyridinyl)-4-fluorobenzenesulfonamide]	180
O=S(=O)(Nc1cc(-c2cnc3ccc(Cl)nn23)cnc1Cl)c1ccc(F)cc1 [Example 25, N-(2-Chloro-5-(6-chloroimidazo[1,2-b]pyridazin-3-yl)pyridin-3-yl)-4-fluorobenzenesulfonamide]	564
